# Results taken from patent US8568755B2 (priority 2007, dated 2013).
# Values joined by “and” are separate entries in the source; they are usually repeats but may differ in a detail not shown here. Equal entries are not always repeated.
# Legend:
# Septoria nodorum = test: Test on preventive effect against wheat glum bloth (Test Example 3); format: in vivo
# Protocol: Wheat (cultivar: Norin-61-go) was cultivated in a plastic pot having a diameter of 7.5 cm, and when it reached 1.5-leaf stage, a mixed chemical solution having the respective sample compounds adjusted to prescribed concentrations, was applied by a spray gun in an amount of 10 ml per seedling. After the chemical solution dried, a suspension of conidia of Septoria nodorum was sprayed and inoculated and maintained at 20° C. for 7 days (for the first 3 days maintained under high humidity condition). Thereafter, the area of lesions was investigated, and the diseased area ratio to non-treated section was obtained by the following equation. Diseased area ratio to non-treated section=(a/b)×100
# a: Average area of lesions in treated section
# b: Average area of lesions in non-treated section
# Further, the theoretical value was calculated by a Colby's formula and shown in brackets ( ) in Tables 3-1 to 3-14. Since the diseased area ratio to non-treated section (experimental value) is lower than the theoretical value, the composition of the present invention can be said to have a synergistic effect.
# Botrytis cinerea [1] = test: Test on antifungal activity against gray mold pathogen, intersecting filter papers (Test Examples 7 and 8); format: cell-based; settings: single use, filter paper immersed in 30 ppm solution, 20° C. for 4 days
# Erysiphe graminis = test: Test on preventive effect against wheat powdery mildew (Test Example 1); format: in vivo
# Botrytis cinerea [2] = test: Test on preventive effect against kidney bean gray mold (Test Example 4); format: in vivo
# Protocol: Kidney bean (cultivar: Taisyou Kintoki) was cultivated in a plastic pot having a diameter of 12.0 cm, and when it reached 2.5-leaf stage, a mixed chemical solution having the respective test compounds adjusted to prescribed concentrations, was applied by a spray gun in an amount of 10 ml per seedling. After the chemical solution dried, the leaf was cut out, and a filter paper disk (8 mm in diameter) was placed on the leaf. Then, 120 μl of a suspension of spores of Botrytis cinerea (1.0×10^6 spores/ml) was dropped thereon and inoculated. The system was maintained under a humidity condition at 20° C. for three days, whereupon the area of lesions was investigated, and the diseased area ratio to non-treated section was obtained in the same manner as in Test Example 3. Further, the theoretical value was calculated by a Colby's formula and shown in brackets ( ) in Tables 4-1 to 4-19. Since the diseased area ratio to non-treated section (experimental value) is lower than the theoretical value, the composition of the present invention can be said to have a synergistic effect.
# Phyicularia oryzae = format: cell-based
# Botrytis cinerea [3] = test: Test on antifungal activity against gray mold pathogen, mycelial growth on agar (Test Example 6); format: cell-based
# Protocol: Mycelial growth of Botrytis cinerea preliminarily obtained by cultivation was punched out by a cork borer having a diameter of 4 mm and transplanted on a potato sucrose agar medium containing mixed chemical agents adjusted to prescribed concentrations. The system was left to stand at 25° C. for 3 days for cultivation, whereupon the diameter of mycelial growth was measured. The incidence to non-treated section was obtained in the same manner as the above Test Example 5, and the results are shown in Table 6-1 to 6-3.
# Further, the theoretical value was calculated by a Colby's formula and shown in brackets ( ) in Tables 6-1 to 6-3. Since the incidence to non-treated section is lower than the theoretical value, the composition of the present invention can be said to have a synergistic effect.
# Sphaerotheca fuliginea = format: in vivo
Structure (SMILES),diseased area ratio to non-treated section (experimental value) (Septoria nodorum; single use at 12.5 ppm),diseased area ratio to non-treated section (experimental value) (Septoria nodorum; single use at 50 ppm),controlling effect (contact of filter paper with mycelial growth area of Botrytis cinerea) (Botrytis cinerea [1]),diseased area ratio to non-treated section (Erysiphe graminis; Compound (a) alone 125 ppm),diseased area ratio to non-treated section (Erysiphe graminis; Compound (a) alone 250 ppm),diseased area ratio to non-treated section (Erysiphe graminis; Compound (a) alone 500 ppm),diseased area ratio to non-treated section (experimental value) (Botrytis cinerea [2]; single use at 4 ppm),incidence to non-treated section (mycelial growth diameter) (Phyicularia oryzae),incidence to non-treated section (mycelial growth diameter) (Botrytis cinerea [3]; single use at 0.5 ppm),diseased area ratio to non-treated section (Sphaerotheca fuliginea; Compound (a) alone 2 ppm),diseased area ratio to non-treated section (experimental value) (Botrytis cinerea [2]; single use at 8 ppm),incidence to non-treated section (mycelial growth diameter) (Botrytis cinerea [3]; single use at 5 ppm),incidence to non-treated section (mycelial growth diameter) (Botrytis cinerea [3]; single use at 50 ppm),diseased area ratio to non-treated section (experimental value) (Sphaerotheca fuliginea; single use at 2 ppm)
"Cc1ccsc1C(=O)NC(C)(C)C(=O)c1ccc(Cl)c(Cl)c1 [Compound No. 2, N-[(3′,4′-dichloro-1,1-dimethyl)phenacyl]-3-methyl-2-thiophenecarboxamide]",50.0,35.0,no adequate controlling effect,97.5 and 90.0,95.0 and 75.0,70.0,65.0,82.6,–,–,–,–,–,–
"Cc1cc(OC(C)C)ccc1C(=O)C(C)(C)NC(=O)c1ncccc1C(F)(F)F [Compound No. 4, N-[[2′-methyl-4′-(2-propyloxy)-1,1-dimethyl]phenacyl]-3-trifluoromethyl-2-pyridinecarboxamide]",35.0,20.0,–,5.0 and 3.6,0.6,–,70.0 and 79.7,69.6 and 71.7,45.2,7.5,64.6,–,–,–
"CCCC(C)Oc1ccc(C(=O)C(C)(C)NC(=O)c2ncccc2C(F)(F)F)cc1 (stereo not shown) [Compound No. 11, N-[[4′-(2-pentyloxy)-1,1-dimethyl]phenacyl]-3-trifluoromethyl-2-pyridinecarboxamide]",50.0,25.0,–,–,–,–,70.0,63.0 and 73.9,–,–,55.7,46.0,32.3,7.5 and 12.5 and 15.0 and 10.0
